Results: US7109193B2, “Tricyclic diazepines tocolytic oxytocin receptor antagonists” (Wyeth, priority 2001, dated 2006)

molecular target: T1, human vasopressin V1a receptor subtype (Homo sapiens, UniProt P37288); assay: Vasopressin binding in Chinese Hamster Ovary cell membranes expressing human vasopressin V1a subtype receptors; conditions: 100 nM, CHO cell membranes, [3H]Manning ligand, values without parentheses
T1 construct: host or cells: CHO cells (pZeoSV vector for the Thibonnier line)
Outline: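 Membranes from CHO cells expressing human V1a receptor were incubated with [3H]Manning ligand (added as 20 μL of 8 nM) in pH 7.4 Tris buffer with MgCl2, BSA and protease inhibitors, 60 min at room temperature. Bound radioactivity was counted after filtration; values are percent inhibition at a stated concentration or IC50.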

T1 sequence (P37288 whole entry): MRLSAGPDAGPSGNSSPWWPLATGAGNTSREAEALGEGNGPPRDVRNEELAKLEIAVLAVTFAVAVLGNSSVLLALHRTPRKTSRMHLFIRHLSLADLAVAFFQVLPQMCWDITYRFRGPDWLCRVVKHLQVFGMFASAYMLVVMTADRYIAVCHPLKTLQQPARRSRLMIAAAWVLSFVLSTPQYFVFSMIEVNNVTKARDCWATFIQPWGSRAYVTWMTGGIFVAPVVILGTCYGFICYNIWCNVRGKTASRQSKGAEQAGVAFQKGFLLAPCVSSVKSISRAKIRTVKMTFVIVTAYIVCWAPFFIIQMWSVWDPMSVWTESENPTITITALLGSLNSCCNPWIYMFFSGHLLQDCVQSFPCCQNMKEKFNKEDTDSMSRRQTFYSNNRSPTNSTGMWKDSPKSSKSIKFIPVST

SMILES | inhibition at 0.1 µM
COc1cc(C(=O)N2Cc3ccc(C(=O)N4CCN(CCN(C)C)CC4)n3Cc3ccccc32)ccc1-c1ccccc1C [Example 201, {4-[2-(Dimethylamino)ethyl]-1-piperazinyl}{10-[(2-methoxy-2′-methyl[1,1′-biphenyl]-4-yl)carbonyl]-10,11-dihydro-5H-pyrrolo[2,1-c][1,4]benzodiazepin-3-yl}methanone] | 43%
COc1ccccc1-c1ccc(C(=O)N2Cc3ccc(C(=O)N4CCN(CCN5CCOCC5)CC4)n3Cc3ccccc32)cc1OC [Example 214, {10-[(2,2′-Dimethoxy[1,1′-biphenyl]-4-yl)carbonyl]-10,11-dihydro-5H-pyrrolo[2,1-c][1,4]benzodiazepin-3-yl}{4-[2-(4-morpholinyl)ethyl]-1-piperazinyl}methanone] | 8%
C=CCN1CCN(C(=O)c2ccc3n2Cc2ccccc2N(C(=O)c2ccc(-c4ccccc4C(F)(F)F)c(C)c2)C3)CC1 [Example 230, (4-Allyl-1-piperazinyl)(10-{[2-methyl-2′-(trifluoromethyl)[1,1′-biphenyl]-4-yl]carbonyl}-10,11-dihydro-5H-pyrrolo[2,1-c][1,4]benzodiazepin-3-yl)methanone] | 3%
COc1cccc(-c2cc(OC)c(C(=O)N3Cc4ccc(C(=O)N(C)C5CCN(C)CC5)n4Cc4ccccc43)cc2Cl)c1 [Example 181, 10-[(6-Chloro-3,3′-dimethoxy[1,1′-biphenyl]-4-yl)carbonyl]-N-methyl-N-(1-methyl4-piperidinyl)-10,11-dihydro-5H-pyrrolo[2,1-c][1,4]benzodiazepine-3-carboxamide] | 23%
CN(C)CCN1CCN(C(=O)c2ccc3n2Cc2ccccc2N(C(=O)c2ccc(-c4cccc5ccccc45)cc2Cl)C3)CC1 [Example 205, {10-[2-Chloro-4-(1-naphthyl)benzoyl]-10,11-dihydro-5H-pyrrolo[2,1-c][1,4]benzodiazepin-3-yl}{4-[2-(dimethylamino)ethyl]-1-piperazinyl}methanone] | -6%
COc1cc(C(=O)N2Cc3ccc(C(=O)NCCC4CCCN4C)n3Cc3ccccc32)ccc1-c1ccccc1C (stereo not shown) [Example 167, 10-[(2-Methoxy-2′-methyl[1,1′-biphenyl]-4-yl)carbonyl]-N-[2-(1-methyl-2-pyrrolidinyl)ethyl]-10,11-dihydro-5H-pyrrolo[2,1-c][1,4]benzodiazepine-3-carboxamide] | 50%
COc1ccccc1-c1ccc(C(=O)N2Cc3ccc(C(=O)N(C)C4CCN(C)CC4)n3Cc3ccccc32)cc1 [Example 177, 10-[(2′-Methoxy[1,1′-biphenyl]-4-yl)carbonyl]-N-methyl-N-(1-methyl-4-piperidinyl)-10,11-dihydro-5H-pyrrolo[2,1-c][1,4]benzodiazepine-3-carboxamide] | 42%
CN1CCCC1CCNC(=O)c1ccc2n1Cc1ccccc1N(C(=O)c1ccc(-c3cccc4ccccc34)cc1Cl)C2 (stereo not shown) [Example 173, 10-[2-Chloro-4-(1-naphthyl)benzoyl]-N-[2-(1-methyl-2-pyrrolidinyl)ethyl]-10,11-dihydro-5H-pyrrolo[2,1-c][1,4]benzodiazepine-3-carboxamide] | 0%
COc1cccc(-c2cc(OC)c(C(=O)N3Cc4ccc(C(=O)NCCN5CCCCC5)n4Cc4ccccc43)cc2Cl)c1 [Example 156, 10-[(6-Chloro-3,3′-dimethoxy[1,1′-biphenyl]-4-yl)carbonyl]-N-[2-(1-piperidinyl)ethyl]-10,11-dihydro-5H-pyrrolo[2,1-c][1,4]benzodiazepine-3-carboxamide] | 2%
COc1cccc(-c2ccc(C(=O)N3Cc4ccc(C(=O)NCCN5CCCCC5)n4Cc4ccccc43)cc2OC)c1 [Example 159, 10-[(2,3′-Dimethoxy[1,1′-biphenyl]-4-yl)carbonyl]-N-[2-(1-piperidinyl)ethyl]-10,11-dihydro-5H-pyrrolo[2,1-c][1,4]benzodiazepine-3-carboxamide] | 44%
COc1cc(C(=O)N2Cc3ccc(C(=O)N4CCN(C(C)C)CC4)n3Cc3ccccc32)ccc1-c1ccccc1C [Example 237, (4-isopropyl-1-piperazinyl){10-[(2-methoxy-2′-methyl[1,1′-biphenyl]-4-yl)carbonyl]-10,11-dihydro-5H-pyrrolo[2,1-c][1,4]benzodiazepin-3-yl}methanone] | 39%
COc1cccc(-c2ccc(C(=O)N3Cc4ccc(C(=O)N5CCN(CCN6CCOCC6)CC5)n4Cc4ccccc43)cc2C)c1 [Example 208, {10-[(3′-Methoxy-2-methyl[1,1′-biphenyl]-4-yl)carbonyl]-10,11-dihydro-5H-pyrrolo[2,1-c][1,4]benzodiazepin-3-yl}{4-[2-(4-morpholinyl)ethyl]-1-piperazinyl}methanone] | 20%
C=CCN1CCN(C(=O)c2ccc3n2Cc2ccccc2N(C(=O)c2cc(Cl)c(-c4cccc(OC)c4)cc2OC)C3)CC1 [Example 226, (4-Allyl-1-piperazinyl){10-[(6-chloro-3,3′-dimethoxy[1,1′-biphenyl]-4-yl)carbonyl]-10,11-dihydro-5H-pyrrolo[2,1-c][1,4]benzodiazepin-3-yl}methanone] | 3%
COc1cccc(-c2ccc(C(=O)N3Cc4ccc(C(=O)NCCC5CCCN5C)n4Cc4ccccc43)cc2OC)c1 (stereo not shown) [Example 172, 10-[(2,3′-Dimethoxy[1,1′-biphenyl]-4-yl)carbonyl]-N-[2-(1-methyl-2-pyrrolidinyl)ethyl]-10,11-dihydro-5H-pyrrolo[2,1-c][1,4]benzodiazepine-3-carboxamide] | 43%
Cc1ccccc1-c1ccc(C(=O)N2Cc3ccc(C(=O)N4CCN(CCN5CCOCC5)CC4)n3Cc3ccccc32)cc1 [Example 209, {10-[(2′-Methyl[1,1′-biphenyl]-4-yl)carbonyl]-10,11-dihydro-5H-pyrrolo[2,1-c][1,4]benzodiazepin-3-yl}{4-[2-(4-morpholinyl)ethyl]-1-piperazinyl}methanone] | 64%
COc1cccc(-c2cc(OC)c(C(=O)N3Cc4ccc(C(=O)N5CCN(C(C)C)CC5)n4Cc4ccccc43)cc2Cl)c1 [Example 239, {10-[(6-Chloro-3,3′-dimethoxy[1,1′-biphenyl]-4-yl)carbonyl]-10,11-dihydro-5H-pyrrolo[2,1-c][1,4]benzodiazepin-3-yl}(4-isopropyl-1-piperazinyl)methanone] | 2%
C=CCN1CCN(C(=O)c2ccc3n2Cc2ccccc2N(C(=O)c2ccc(-c4ccccc4OC)c(OC)c2)C3)CC1 [Example 227, (4-Allyl-1-piperazinyl){10-[(2,2′-dimethoxy[1,1′-biphenyl]-4-yl)carbonyl]-10,11-dihydro-5H -pyrrolo[2,1-c][1,4]benzodiazepin-3-yl}methanone] | 2%
COc1cccc(-c2ccc(C(=O)N3Cc4ccc(C(=O)N5CCN(C(C)C)CC5)n4Cc4ccccc43)cc2C)c1 [Example 235, (4-Isopropyl-1-piperazinyl){10-[(3′-methoxy-2-methyl[1,1′-biphenyl]-4-yl)carbonyl]-10,11-dihydro-5H-pyrrolo[2,1-c][1,4]benzodiazepin-3-yl}methanone] | 9%
Cc1ccccc1-c1ccc(C(=O)N2Cc3ccc(C(=O)NCCC4CCCN4C)n3Cc3ccccc32)cc1 (stereo not shown) [Example 166, 10-[(2′-Methyl[1,1′-biphenyl]-4-yl)carbonyl]-N-[2-(1-methyl-2-pyrrolidinyl)ethyl]-10,11-dihydro-5H-pyrrolo[2,1-c][1,4]benzodiazepine-3-carboxamide] | 29%
